The text below walks through data of US8309129B2, “Nanoparticles comprising a drug, ethylcellulose, and a bile salt” (Bend Research, Inc., priority 2007, dated 2012).

Type in all cases: physicochemical
One series is described as follows: Measurement of free drug. The procedure: In one embodiment, the compositions of the present invention are capable of improving the concentration of dissolved drug in a use environment relative to a control composition consisting essentially of the drug alone without any ethylcellulose or bile salt. In order to determine concentration enhancement in vitro, the amount of “free” drug, or solvated drug is measured. By “free” drug is meant drug which is in the form of dissolved drug or present in micelles, but which is not in the nanoparticles or any solid particles larger than 500 nm, such as precipitate. A composition of the invention provides concentration enhancement if, when administered to an aqueous use environment, it provides a free drug concentration that is at least 1.25-fold the free drug concentration provided by the control composition. Preferably, the free drug concentration provided by the compositions of the invention are at least about 1.5-fold, more preferably at least about 2-fold, and most preferably at least about 3-fold that provided by the control composition.
The amount of free drug provided by a suspension of the nanoparticles of Example 11 was measured using the following procedure. […]
The amount of free drug provided by a suspension of the nanoparticles of Example 12 was measured as follows. […]

A short description of series [1]: Dynamic light scattering (DLS) of aqueous nanoparticle suspension as formed. As to conditions: Tables 5 and 6; valdecoxib suspension samples. From the text:
The nanoparticles are small particles comprising the drug, ethylcellulose, and a bile salt. By “nanoparticles” is meant a plurality of small particles in which the average size of the particles in suspension is less than about 500 nm. By “average size” is meant the effective cumulant diameter as measured by dynamic light scattering, using for example, Brookhaven Instruments' 90Plus particle sizing instrument. By “size” is meant the diameter for spherical particles, or the maximum diameter for non-spherical particles. Preferably, the average size of the nanoparticles is less than 400 nm, more preferably less 300 nm, more preferably less than 150 nm, more preferably less than 100 nm, and most preferably less than 75 nm.
The width of the particle size distribution in suspension is given by the “polydispersity” of the particles, which is defined as the relative variance in the correlation decay rate distribution, as is known by one skilled in the art. […]
The particle size of the nanoparticles in the aqueous suspension was determined using dynamic light scattering (DLS) as follows. […] Dynamic light-scattering was measured using a Brookhaven Instruments (Holtsville, N.Y.) BI-200SM particle size analyzer with a BI-9000AT correlator. The sums of exponentials from the autocorrelation functions were analyzed using CONTIN software to extract size distributions from the samples. […]

A short description of series [2]: Nanoparticle dissolution test of valdecoxib in Hank's buffer. As to conditions: percent of total drug released per minute, 10 μg/mL, 37° C. The procedure:
The dissolution rate of valdecoxib from nanoparticles of Example 12 was measured using the dissolution test as follows. The spray-dried composition of Example 12 were added to Hank's buffer to obtain a valdecoxib concentration of about 1 mgA/mL. The suspension was diluted to 10 μg/mL by adding 0.2 mL suspension to 20 mL buffer. The diluted suspension was placed on a shaker table in a 37° C. chamber, and aliquots were removed at 2, 5, and 10 minutes. The aliquots were centrifuged for 5 minutes at 12,000 rpm using a 30,000-dalton molecular-weight cutoff centrifuge tube filter, and 100 μL of the supernatant was added to 250 μL acetonitrile. The samples were assayed by HPLC. Crystalline drug alone was tested for comparison. The dissolution rate for nanoparticles of the invention was 3.6 times that of crystalline drug alone.

The nature of another series: Solubility of the drug.
Setting [3] is: water, read-out: solubility in water.
Setting [4] is: MFD solution, fassgf or other biorelevant, read-out: solubility in MFD solution.

A word on the solubility: it is how much of the substance goes into solution per volume.

Values after ≈ are worked out from the molar mass of the structure shown. Read-outs that look alike come from different tables or passages of the source. A value given as a limit tells only on which side of the number the result lay.

As for `Cc1onc(-c2ccccc2)c1-c1ccc(S(N)(=O)=O)cc1` [Crystalline Valdecoxib, valdecoxib], the “Free Drug” value is 11 µg/mL in the series “Measurement of free drug” (Table 5, aqueous suspension prior to spray-drying, 100,000-dalton cutoff filtrate) and 11 µg/mL in the series “Measurement of free drug” (Table 6, spray-dried composition in dextrose solution, 100,000-dalton cutoff filtrate). Further, the “Average Particle Size” value in series [1] is listed as greater than 1000 nm. Further, in series [2], the “Dissolution Rate” value came out at 5.0 %/min.

Consider `Cc1onc(-c2ccccc2)c1-c1ccc(S(N)(=O)=O)cc1` [Drug 2, 4-(5-methyl-3-phenyl-4-isoxazolyl)benzenesulfonamide], for which the solubility in “Solubility of the drug” (setting [3]) is roughly 10 µg/mL (≈ 31.8 µM).

As to `Cc1ccc(-c2cc(C(F)(F)F)nn2-c2ccc(S(N)(=O)=O)cc2)cc1` [Drug 1, 4-[5-(4-methylphenyl)-3-(trifluoromethyl)-1H-pyrazol-1-yl]benzenesulfonamide], the solubility in “Solubility of the drug” (setting [4]) is roughly 40 µg/mL (≈ 105 µM).

Consider `CC[C@@H]1C[C@H](N(Cc2cc(C(F)(F)F)cc(C(F)(F)F)c2)C(C)=O)c2cc(C(F)(F)F)ccc2N1C(=O)OC(C)C` [Drug 4, [2R,4S]4-[acetyl-(3,5-bis-trifluoromethyl-benzyl)-amino]-2-ethyl-6-trifluoromethyl-3,4-dihydro-2H-quinoline-1-carboxylic acid isopropyl ester], for which the solubility in the series “Solubility of the drug” (setting [4]) was roughly 11 µg/mL (≈ 18.4 µM).

For the molecule `CCOC(=O)N1c2ccc(C(F)(F)F)cc2[C@@H](N(Cc2cc(C(F)(F)F)cc(C(F)(F)F)c2)C(=O)OC)C[C@H]1CC` [Drug 3, [2R,4S]4-[(3,5-bis-trifluoromethyl-benzyl)-methoxycarbonyl-amino]-2-ethyl-6-trifluoromethyl-3,4-dihydro-2H-quinoline-1-carboxylic acid ethyl ester], the solubility in “Solubility of the drug” (setting [3]) is less than 0.1 µg/mL.
